Results as given in patent publication US9067894B1, “Compound, composition, and method of activating GIRK potassium channel and use of same for treating conditions of interest” (Vanderbilt University, priority 2013, dated 2015).

Tests used:
Assay type in all cases: cell-based
GIRK1/2 [1] = target: T1, GIRK1/2 (Homo sapiens, UniProt P48051+P48549); assay: Thallium flux assay protocol (Examples 2 and 3), GIRK1/GIRK2 HEK-293 cells; set-up: expressed in transfected cells; host or cells: HEK-293; details: for GIRK1/2 efficacy (activator): standardized to 2 (ML297) = 100%; for EC50: triplicate determinations
T1 sequence (P48549 1-501): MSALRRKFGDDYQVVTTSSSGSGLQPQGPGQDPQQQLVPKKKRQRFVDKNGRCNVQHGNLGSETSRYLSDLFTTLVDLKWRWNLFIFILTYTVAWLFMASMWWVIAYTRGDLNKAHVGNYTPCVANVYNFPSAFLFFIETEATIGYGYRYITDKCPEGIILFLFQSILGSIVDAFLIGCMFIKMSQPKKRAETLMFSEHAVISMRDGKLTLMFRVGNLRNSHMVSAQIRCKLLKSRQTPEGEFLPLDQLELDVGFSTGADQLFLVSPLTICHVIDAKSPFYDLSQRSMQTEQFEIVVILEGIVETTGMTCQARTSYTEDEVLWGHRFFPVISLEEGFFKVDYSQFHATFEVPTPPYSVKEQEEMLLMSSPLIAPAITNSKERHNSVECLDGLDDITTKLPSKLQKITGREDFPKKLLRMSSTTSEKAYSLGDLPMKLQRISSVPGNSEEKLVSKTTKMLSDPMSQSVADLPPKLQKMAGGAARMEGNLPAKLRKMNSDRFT
T1 sequence (P48051 1-423): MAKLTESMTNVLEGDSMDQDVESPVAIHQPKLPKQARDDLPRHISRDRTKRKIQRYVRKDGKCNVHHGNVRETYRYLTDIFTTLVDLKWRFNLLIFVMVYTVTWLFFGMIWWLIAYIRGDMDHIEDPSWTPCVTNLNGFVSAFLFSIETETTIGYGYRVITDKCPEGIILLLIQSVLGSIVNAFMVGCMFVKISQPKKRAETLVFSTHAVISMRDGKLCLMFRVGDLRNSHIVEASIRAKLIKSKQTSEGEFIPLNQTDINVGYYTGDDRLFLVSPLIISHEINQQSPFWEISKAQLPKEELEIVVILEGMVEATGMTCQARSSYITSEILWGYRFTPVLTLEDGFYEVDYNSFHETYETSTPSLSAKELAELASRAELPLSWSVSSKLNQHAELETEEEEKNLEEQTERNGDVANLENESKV
Experimental: Compounds were dissolved in DMSO, transferred to 384-well polypropylene plates, and serially diluted in DMSO using and Agilent Bravo (11-points, threefold dilutions). Serially diluted plates were dispensed to daughter plates using a Labcyte Echo555 and diluted to twofold over their target assay concentration with 20 mM HEPES-buffered (pH 7.4) Hanks Balanced Salt Solution (HBSS), hereafter referred to as Assay Buffer, using a Thermo Fisher Combi. Twenty-thousand HEK-293 cells/well stably transfected with the ion channel subunits of interest (e.g., GIRK1/GIRK2, GIRK1/GIRK4) were plated into 384-well, black-walled, clear-bottom, amine-coated coated plates in 20 LL/well alpha-minimal essential medium (MEM) supplemented with 10% (v/v) fetal bovine serum and incubated overnight in a 5% CO2 incubator at 37° C. Cell culture medium was removed from cell plates and replaced with 20 LL/well Assay Buffer. Twenty microliters/well of 0.5 LM of the thallium-sensitive dye, Thallos-AM (TEFlabs, Austin Tex.) in Assay Buffer was added to cell plates. Cell plates were incubated for 60 min at room temperature and then dye-loading solution was removed from cell plates and replaced with 20 LL/well Assay Buffer. Dye loaded and washed cell plates were transferred to a Hamamatsu FDSS 6000 and a double-addition protocol was initiated. After 10s, 20 LL/well of 20 LM test compound in 0.2% DMSO and Assay Buffer was added. After 4 min 10 LL/well of a 5× sodium bicarbonate-based thallium stimulus buffer (20 mM HEPES pH 7.4, 135 mM NaHCO3, 2 mM CaSO4, 1 mM MgSO4, 5 mM glucose, 12 mM Tl2SO4) was added and 2 more minutes of data collection followed. Fluorescence data were collected at 1 Hz. Data analysis: Waveform signals (fluorescence intensity vs time normalized by dividing each fluorescence value (F) by the initial fluorescence value for each trace (F0)) were reduced to single values by subtracting the average normalized waveform from vehicle control wells from each wave on the plate followed by obtaining the slope of the change in fluorescence immediately after the addition of the thallium stimulus. […] Curve fits for normalized slope values were obtained using a four-parameter logistic equation in the Excel add-in, XLfit.

GIRK1/4 = target: T2, GIRK1/4 (Homo sapiens, UniProt P48544+P48549); assay: Thallium flux assay protocol (Examples 2 and 3), GIRK1/GIRK4 HEK-293 cells; details: for GIRK1/4 efficacy (activator): standardized to 2 (ML297) = 100%; for EC50: triplicate determinations
T2 construct: expressed in transfected cells; host or cells: HEK-293
T2 sequence (P48549 1-501): T1 sequence (P48549 1-501)
T2 sequence (P48544 1-419): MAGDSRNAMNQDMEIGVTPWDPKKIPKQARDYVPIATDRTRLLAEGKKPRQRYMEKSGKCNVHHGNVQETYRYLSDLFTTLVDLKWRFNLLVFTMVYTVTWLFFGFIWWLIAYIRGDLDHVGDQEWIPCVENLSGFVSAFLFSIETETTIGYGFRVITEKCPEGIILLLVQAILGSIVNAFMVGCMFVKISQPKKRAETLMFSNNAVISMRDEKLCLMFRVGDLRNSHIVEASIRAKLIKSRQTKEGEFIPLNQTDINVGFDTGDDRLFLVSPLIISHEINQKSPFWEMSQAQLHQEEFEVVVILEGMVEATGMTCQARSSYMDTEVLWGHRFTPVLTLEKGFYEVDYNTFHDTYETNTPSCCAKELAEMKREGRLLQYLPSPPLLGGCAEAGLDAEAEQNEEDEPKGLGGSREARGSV
Experimental: Compounds were dissolved in DMSO, transferred to 384-well polypropylene plates, and serially diluted in DMSO using and Agilent Bravo (11-points, threefold dilutions). Serially diluted plates were dispensed to daughter plates using a Labcyte Echo555 and diluted to twofold over their target assay concentration with 20 mM HEPES-buffered (pH 7.4) Hanks Balanced Salt Solution (HBSS), hereafter referred to as Assay Buffer, using a Thermo Fisher Combi. Twenty-thousand HEK-293 cells/well stably transfected with the ion channel subunits of interest (e.g., GIRK1/GIRK2, GIRK1/GIRK4) were plated into 384-well, black-walled, clear-bottom, amine-coated coated plates in 20 LL/well alpha-minimal essential medium (MEM) supplemented with 10% (v/v) fetal bovine serum and incubated overnight in a 5% CO2 incubator at 37° C. Cell culture medium was removed from cell plates and replaced with 20 LL/well Assay Buffer. Twenty microliters/well of 0.5 LM of the thallium-sensitive dye, Thallos-AM (TEFlabs, Austin Tex.) in Assay Buffer was added to cell plates. Cell plates were incubated for 60 min at room temperature and then dye-loading solution was removed from cell plates and replaced with 20 LL/well Assay Buffer. Dye loaded and washed cell plates were transferred to a Hamamatsu FDSS 6000 and a double-addition protocol was initiated. After 10s, 20 LL/well of 20 LM test compound in 0.2% DMSO and Assay Buffer was added. After 4 min 10 LL/well of a 5× sodium bicarbonate-based thallium stimulus buffer (20 mM HEPES pH 7.4, 135 mM NaHCO3, 2 mM CaSO4, 1 mM MgSO4, 5 mM glucose, 12 mM Tl2SO4) was added and 2 more minutes of data collection followed. Fluorescence data were collected at 1 Hz. Data analysis: Waveform signals (fluorescence intensity vs time normalized by dividing each fluorescence value (F) by the initial fluorescence value for each trace (F0)) were reduced to single values by subtracting the average normalized waveform from vehicle control wells from each wave on the plate followed by obtaining the slope of the change in fluorescence immediately after the addition of the thallium stimulus. Slope values were normalized as a percentage of the slope obtained by the addition of a maximally effective concentration of the GIRK activator, ML297 (e.g., an efficacy value of 100% means that the compound's maximum apparent efficacy equals that of ML297). Curve fits for normalized slope values were obtained using a four-parameter logistic equation in the Excel add-in, XLfit.

GIRK1/2 [2] = target: T1, GIRK1/2; assay: Thallium flux assay, HEK-293 cells expressing GIRK1/2; set-up: host or cells: HEK-293; details: confirmed GIRK activator of GIRK1/2, HTS hit; read-out: EC50
Description: Cell Line Construction and Cell Culture. HEK-293 cells co-expressing human GIRK1/2 and rat mGlu8 were generated as previously described (Niswender et al., 2008). A HEK-293 cell line (ATCC, Manassas, Va.) expressing human GIRK1 and human GIRK2 was constructed by transfecting HEK-293 cells with GIRK1 and GIRK2 (Origene, Rockville, Md.) cloned into the pBudCE4.1 vector (Life Technologies, Carlsbad, Calif.) using FuGene 6 (Promega, Madison, Wis.) transfection reagent. Unless otherwise noted, other ion channel-expressing cells were prepared by transfecting HEK-293 cells with individual or combinations of subunits: GIRK1, pCMV6-A-BSD; GIRK2, pCMV6-A-puro; GIRK3, pCMV6-A-hygro; GIRK4, pCMV6-A-AC; Kv7.4, pIRESneo3. The Kir2.1 and hERG-expressing cell lines were made by transfecting T-REx-293 cells (Life Technologies, Carlsbad, Calif.) with Kir2.1 and Kv11.1, respectively, cloned into pcDNA5TO. Monoclonal cell lines were produced by limiting-dilution cloning of antibiotic-resistant cells and functional selection using the thallium flux assay described below. Unless otherwise noted, cells were maintained in Minimal Essential Medium, Alpha Medium (Mediatech, Manassas, Va.) supplemented with 10% fetal bovine serum (Sigma-Aldrich, Saint Louis, Mo.) and GlutaGro (Mediatech, Manassas, Va.), referred to henceforth as cell culture medium. […]

GIRK1/2 efficacy (activator) (GIRK1/2 [1]) [%] | GIRK1/4 efficacy (activator) (GIRK1/4) [%] | EC50 (GIRK1/4; Table 4, analogs 8) [nM] | SMILES | other results
108 | 114 |  | Cc1ccc(NC(=O)Cc2ccccc2Br)cc1S(=O)(=O)N(C)C [3a] | 
87 | 99 |  | Cc1cc(NC(=O)Nc2ccc(F)c(F)c2)n(Cc2ccccc2)n1 [5d] | 
26 |  |  | Cc1ccc(NC(=O)Nc2ccc(C(F)(F)F)cc2)cc1S(=O)(=O)N(C)C [6h] | EC50 (GIRK1/2 [1]; Table 3, analogs 6 (ureas)): 15 µM
 |  |  | COc1ccc(OC)c(NC(=O)Nc2ccc(C)c(S(=O)(=O)N(C)C)c2)c1 [6i] | activity at GIRK1/2 (in words) (GIRK1/2 [1]): inactive; activity at GIRK1/4 (in words) (GIRK1/4): inactive
 |  |  | Cc1ccc(NC(=O)Nc2cccc(C#N)c2)cc1S(=O)(=O)N(C)C [6j] | EC50 (GIRK1/4; Table 3, analogs 6 (ureas)): 3300 nM
 |  | 2700 | CC(C)(C)c1cccc(NC(=O)Cc2ccccc2Cl)c1 [8b] | EC50 (GIRK1/2 [1]; Table 4, analogs 8): 5.9 µM
 |  | 7800 | O=C(Cc1ccccc1Cl)Nc1cccc(OC(F)F)c1 [8c] | 
 |  | > 10000 | O=C(Cc1ccccc1Cl)Nc1cc(Cl)cc(C(F)(F)F)c1 [8d] | EC50 (GIRK1/2 [1]; Table 4, analogs 8): > 10 µM
 | 17 | 240 | O=C(Cc1ccccc1Cl)Nc1ccc(Cl)c(C(F)(F)F)c1 [8e] | activity at GIRK1/2 (in words) (GIRK1/2 [1]): inactive
 | 22 | 1800 | O=C(Cc1ccccc1Cl)Nc1cccc(Cl)c1 [8g] | activity at GIRK1/4 (in words) (GIRK1/4): selective, partial GIRK1/4 activators
 |  |  | Cc1cccc(NC(=O)Cc2ccccc2Cl)c1 [8i] | activity at GIRK1/2 (in words) (GIRK1/2 [1]): inactive; activity at GIRK1/4 (in words) (GIRK1/4): inactive
 |  |  | Cc1cc(NC(=O)Nc2ccccc2)n(-c2ccccc2)n1 [CID736191] | EC50 (GIRK1/2 [2]): ~1000 nM
110 | 104 |  | Cc1ccc(NC(=O)Cc2ccccc2Cl)cc1S(=O)(=O)N(C)C [compound 3] | 
